From patent publication US5126336A, “Antibiotic C-3 catechol-substituted cephalosporin compounds, compositions and method of use thereof” (Bristol-Myers Squibb Company, priority 1990, dated 1992)
Converted amounts (≈) assume the structure as drawn.

What was measured:
[1] = tested on: Gp-Ia: Penicillin(PC)-sensitive S. aureus (5 strains); experiment: MIC, two-fold serial agar dilution, Gp-Ia; type: cell-based; conditions: Mueller-Hinton agar
Protocol: (§1) Minimum inhibitory concentrations (MICs) of the present series of cephalosporins were determined against 32 strains of test organisms by two-fold serial agar dilution method in Mueller-Hinton agar. Geometric means of MICs were calculated against six groups of the test organisms which are classified as follows and summarized in Table 1.
Gp-Ia Penicillin(PC)-sensitive S. aureus (5 strains).

[2] = tested on: Gp-Ib: Penicillin(PC)-resistant S. aureus (5); experiment: MIC, two-fold serial agar dilution, Gp-Ib; type: cell-based; conditions: 5 strains, Mueller-Hinton agar
Protocol: as §1
Gp-Ib Penicillin(PC)-resistant S. aureus (5).

[3] = tested on: Gn-Ia: Cephalothin(CET)-sensitive E. coli (2), Kl. pneumoniae (1) and Pr. mirabilis (2); experiment: MIC, two-fold serial agar dilution, Gn-Ia; type: cell-based; conditions: 5 strains, Mueller-Hinton agar
Protocol: as §1
Gn-Ia Cephalothin(CET)-sensitive E. coli (2), Kl.
pneumoniae (1) and Pr. mirabilis (2).

[4] = tested on: Gn-Ib: Cephalothin(CET)-resistant E. coli (3) and Kl. pneumoniae (2); experiment: MIC, two-fold serial agar dilution, Gn-Ib; type: cell-based; conditions: Gn-Ib, 5 strains; Mueller-Hinton agar
Protocol: as §1
Gn-Ib Cephalothin(CET)-resistant E. coli (3) and Kl.

[5] = tested on: Gn-II: M.morganii (1), Ent. cloacae (2) and Ser. marcescens (2); experiment: MIC, two-fold serial agar dilution, Gn-II; type: cell-based; conditions: Gn-II, 5 strains; Mueller-Hinton agar
Protocol: as §1
Gn-II M.morganii (1), Ent. cloacae (2) and Ser.

[6] = tested on: Gn-III: Ps. aeruginosa (7); experiment: MIC, two-fold serial agar dilution, Gn-III; type: cell-based; conditions: Gn-III, 7 strains; Mueller-Hinton agar
Protocol: as §1
Gn-III Ps. aeruginosa (7).

E. coli Juhl A15119 = experiment: MIC, agar dilution; type: cell-based; conditions: E. coli Juhl (Table 3)
Protocol: as §1
(§2) In vivo antibacterial activity was determined against three bacterial infections (S. aureus Smith, E. coli Juhl and P. aeruginosa A9843A) by intramuscular administration to mice just after the bacterial challenge. PD50 values are summarized in Table 3 in comparsion with the MIC values against the corresponding organisms.
(§3) Medium; MuellerHinton agar (pH = 7.2)
(§4) Incubation temperature: 32° C., 18 hr
(§5) Inoculum size; 10^6 cells/ml

P. aeruginosa A9843A [7] = experiment: MIC, agar dilution; type: cell-based; conditions: P. aeruginosa 9843A (Table 3)
Protocol: as §1, §2, §3, §4, §5

S. aureus Smith [8] = experiment: MIC, agar dilution; type: cell-based; conditions: S. aureus Smith (Table 3)
Protocol: as §1, §2, §3, §4, §5

S. aureus Smith [9] = experiment: In vivo antibacterial activity, S. aureus Smith infection; conditions: mice, im just after bacterial challenge
Protocol: as §2

E. coli Juhl = experiment: In vivo antibacterial activity, E. coli Juhl infection; conditions: mice, im just after bacterial challenge
Protocol: as §2

P. aeruginosa A9843A [10] = experiment: In vivo antibacterial activity, P. aeruginosa A9843A infection; parameters: species or system mice; conditions: mice, im just after bacterial challenge; P. aeruginosa 9843A
Protocol: as §2

In the case of `CO/N=C(\C(=O)NC1C(=O)N2C(C(=O)O)=C(/C=C/Cn3ccc4cc(=O)c(O)cc-4c3)CS[C@H]12)c1csc(N)n1` (stereo partly drawn) [Iw, 7-[(Z)-2-(2-Aminothiazol-4-yl)-2-methoxyimino-acetamido]-3-[(E)-3-(2,6-dihydro-7-hydroxy-6-oxo-isoquino-lin-2-yl)-1-propen-1-yl]-3-cephem-4-carboxylic acid], the “Geometric mean of MIC” value [1] is reported as 0.8 µg/mL, the “Geometric mean of MIC” value [2] is reported as 1.4 µg/mL and the “Geometric mean of MIC” value [3] is reported as 0.015 µg/mL. For the same compound, the “Geometric mean of MIC” value [4] was 0.022 µg/mL, the “Geometric mean of MIC” value [5] was 0.13 µg/mL and the “Geometric mean of MIC” value [6] was 13.0 µg/mL. For the same compound, the MIC (E. coli Juhl A15119) was 0.1 µg/mL (≈ 0.172 µM), the MIC (P. aeruginosa A9843A [7]) was 12.5 µg/mL (≈ 21.5 µM) and the MIC (S. aureus Smith [8]) was 0.8 µg/mL (≈ 1.37 µM). The PD50 (S. aureus Smith [9]) was 0.18 mg/kg, the PD50 (E. coli Juhl) was 0.19 mg/kg and the PD50 (P. aeruginosa A9843A [10]) was 0.39 mg/kg.
